One data set has as its target T1, VDAC1 (Mus musculus, UniProt Q60932).
T1 construct: strongly expressed in mSC mitochondria; from tissue; host or cells: myelinating Schwann cells (mSC) of the sciatic nerve of living mice (wild type; db/db and +/db in A10)
As to the kind of experiment: Mitochondrial calcium imaging (mito-GCaMP2, multiphoton) in mSC of mouse sciatic nerve, nerve crush model. Format: in vivo. The following applies: mito-GCaMP2; VDAC1 silenced or drug given before crush. The procedure:
Mice were anesthetized with isoflurane inhalation and placed under a Stemi2000 microscope (Zeiss). Incision area was shaved and cleaned using betadine solution. After incision, the gluteus superficialis and biceps femoris muscles were separated to reveal the cavity traversed by the sciatic nerve. The nerve was lift out using spatula and a thin glass needle filled with viral solution (8 μl) was introduced into the nerve with a micromanipulator. This solution was injected over 30 min with short pressure pulses using a Picospritzer III (Parker Hannifin) coupled to a pulse generator. After injection, the nerve was replaced into the cavity, the muscles were readjusted, and the wound was closed using clips (for further details see Gonzalez et al., 2014^3).
(§1) TRO19622 drug (Tocris bioscience, Ref. 2906) was diluted in ethanol to 20 mM and then, the solution was diluted in sterile PBS to 20 μM. TRO19622 treatments were realized by 3 mg/kg intraperitoneal (IP) injections of 20 mM solution or by intra sciatic nerve injections of 2 μl of drug solution 2 μM using a Hamilton syringe or a glass needle in sterile conditions 30 minutes before multiphoton image acquisitions or immunohistochemistry and demyelination studies respectively. Methyl jasmonate drug (Sigma-Aldrich, Ref. 392707) was diluted in 1 ml of sterile PBS to 1M or 3M. Methyl jasmonate treatments were realized by intra sciatic nerve injections of 1 μl of drug solution using a glass needle and micromanipulator in sterile conditions following the same virus injections procedure (see in vivo virus injection in the sciatic nerve method) two hours before multiphoton image acquisition. […] All drug concentrations were previously evaluated by Bordet et al, 2007^5; Goldin et al, 2008^6; Sharov et al, 2007^7.
First injected mouse was anesthetized with 5% of isoflurane a 1.5% of oxygen into the anesthesia system box (World Precision Instruments, Ref. EZ-B800) for 5 minutes. Anesthesia controls were realized^8. Then, mouse was placed in anesthesia mask and the incision area was shaved and cleaned with betadine and ethanol 70% solution. Incision was realized using a scalpel and the skin was retracted using forceps in order to expose the gluteus superficialis and bleeps femoris muscles. Next, the connective tissue that connects both muscles was cut and the sciatic nerve was gently lifted out using a spatula. A flexible bridge was slide below sciatic nerve and it was placed into a plastic first pool fixed to the bridge. Mouse was placed under the multiphoton microscope, the bridge was fixed using magnetic brackets to avoid physiological movement and mouse legs were fixed using clippers. Microscope dark box temperature is controlled to 37° C. during all time-lapse imaging. Finally, a second pool was fixed to the first pool using a drop of agarose low melting 3% (Promega, Ref. V2111) in Leibovitz's L15 medium (Gibco Life Technologies) and filled with deionized water to immerse the objectives 20× or 63× (Carl Zeiss Microscopy).
All time-lapse images were obtained with a multiphoton microscope Zeiss LSM 7 MP OPO. Mitochondria motility images were acquired by time-lapse recording of one image every five minutes during five hours at 920 nm. GCaMP2 and SypHer probe images were acquired by time-lapse recording of one image every fifteen minutes during five hours at 985 nm. Images were acquired to constant 1% of laser intensity to 100 msec of acquisition time with 512×512 resolution and 10 images of z-stack of 20 μm. Images were saved in Zeiss .czi format and processed using Image J program. For further details see Gonzalez et al., 201X^8
To characterize mitochondria physiology during the demyelination process we combined two in vivo methods. We used the nerve crush model to reliably induce demyelination in the mouse sciatic nerve and a viral approach^19 allowing the expression of different fluorescent probes selectively into mitochondria of myelinating Schwann cells (mSC) in mouse sciatic nerve.

For data set [1], the system named is phospho-ERK1/2, phospho-p38, phospho-JNK and phospho-c-jun. As to the kind of experiment: Western blot of demyelination signaling pathways in sciatic nerve after crush or MJ. It counts as in vivo, mouse. The note with it: western blot 4 and 12 hours after crush; treated before crush. The procedure: as §1
The next data set relates to diabetic (db/db) mice. In words: Behavioral tests (rotarod, grip, CatWalk) in diabetic mice. It counts as in vivo, mouse. The procedure:
(§2) […] Mice and rats were first given a pretraining trial of two days to familiarize them with the rotating rod. For control and diabetic mice latency to fall was measured at fixed speed 10 rpm over a 180 s time as a cut-off. No acceleration testing was performed for mice. For control and CMT1A rats latency to fall and maximum rpm (revolutions per minute) were measured at accelerated speed. […] Each animal underwent three trials a day. For each day, data were averaged for each animal (values from the three trials), normalized according to animal weight and then averaged for each treated group.
[…] The runs were analyzed when the speed of crossing was constant and homogenous. At least three compliant runs were analyzed for each animal Data were averaged per animal, normalized according to animal weight and then per treated group. The resulting data provided quantitative parameters and qualitative walking patterns.
(§3) Neuromuscular strength of diabetic mice and CMT rats was assessed in standardized grip strength tests for front, hind and all limbs. All limbs grip strength was measured by rat supporting on the metal grid and pulling the animal's tail toward a horizontal grid connected to a gauge. Front and hind limb grip strength were measured by supporting the forelimbs or hindlimbs respectively and pulling the animal's tail toward a horizontal T-bar connected to a gauge. The maximum force (measured in newtons) exerted onto the T-bar or grid before the animals lost grip was recorded, and the mean of 3 repeated measurements was calculated. All data were normalized according to animal weight.
Finally, although the obesity of db/db diabetic mice hinders functional motor tests, we evaluated their neuromuscular performances during drug treatment using rotarod, grip and Catwalk tests. […] Rotarod and grip strength recoveries were not due to a reduced weight as no change in mice weight was observed during treatment.
(In the rotarod test animals must keep their balance on a rotating rod.)

The test system of another data set is CMT1A rats. As to the kind of experiment: Behavioral motor tests (rotarod, grip, CatWalk) in CMT1A rats. It counts as in vivo, rat. The procedure:
as §2
Detailed analysis of gait was performed on free-walking 16 weeks old diabetic mice and 12 weeks old CMT1A rats using the CatWalk method (CatWalk XT 10.5, Noldus Information Technology) during PBS or TRO19622 treatment. The runs were analyzed when the speed of crossing was constant and homogenous. At least three compliant runs were analyzed for each animal Data were averaged per animal, normalized according to animal weight and then per treated group. The resulting data provided quantitative parameters and qualitative walking patterns.
as §3
Finally, we studied the neuromuscular performance of CMT1A and control rats using behavioral motor tests. […] Moreover, using catwalk test we observed a decrease of paw time stand (FIG. 2B), hind paw distance (FIG. 2C) and an increase of paw print area (FIG. 2D). […] Therefore inhibiting mitochondrial calcium release through VDAC1 opens a major avenue toward the treatment of human CMT1A.

The conditions of data set [2]: cited from earlier work.
Setting [3] is: CMT1A rats treated for one month.

Entries after “also recorded” stand apart in the source; their conditions may differ.

T1 sequence (Q60932 14-296): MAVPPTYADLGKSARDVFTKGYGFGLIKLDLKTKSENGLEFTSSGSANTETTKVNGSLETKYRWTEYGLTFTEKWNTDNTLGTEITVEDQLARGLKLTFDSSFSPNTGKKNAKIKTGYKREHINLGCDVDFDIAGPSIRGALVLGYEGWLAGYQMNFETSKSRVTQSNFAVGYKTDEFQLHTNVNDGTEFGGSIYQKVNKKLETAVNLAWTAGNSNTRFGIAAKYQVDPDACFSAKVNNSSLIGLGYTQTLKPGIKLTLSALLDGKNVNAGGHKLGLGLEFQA

`CC(C)CCC[C@@H](C)[C@H]1CC[C@H]2[C@@H]3CCC4=C/C(=N\O)CC[C@]4(C)[C@H]3CC[C@]12C` [TRO19622, (NZ)—N-[(8S,9S,10R,13R,14S,17R)-10,13-dimethyl-17-[(2R)-6-methylheptan-2-yl]-1,2,6,7,8,9,11,12,14,15,16,17-dodecahydrocyclopenta[a]phenanthren-3-ylidene]hydroxylamine]: the “mitochondrial calcium release in mSC after nerve crush” value at VDAC1 is “able to block calcium release from mitochondria; also recorded: completely abolished; also recorded: blocks mitochondrial calcium release”. In data set [1], the “increase in phospho-ERK1/2, phospho-p38, phospho-JNK and phospho-c-jun after nerve crush” value is “strongly reduced”. Besides, in the data set with diabetic (db/db) mice, the Catwalk test parameters result was “no change”; the “myelin thickness, nerve conduction velocity and neuromuscular defects (all these parameters)” value is on record as “steadily improve”. Moreover, the “effects on MAPK activation, nerve structure and neuromuscular performance after stopping the treatment” value in the data set with diabetic (db/db) mice (2 months after stopping the treatment) was “did not last”. For the same compound, in the data set on diabetic (db/db) mice (20 days after treatment), the grip strength entry was “significant increase” and the rotarod latency result was “significant increase”. In the data set on CMT1A rats (setting [3]), the grip strength entry is recorded as “significant increase” and the “latency on accelerating rotarod” value is recorded as “significant increase”. Besides, the “effects on demyelination, g-ratio and behavioral motor tests after stopping the treatment” value with CMT1A rats (CMT1A rats, 2 months after stopping the treatment) is “disappeared; also recorded: did not last”. In addition, in the data set with CMT1A rats (CMT1A rats, catwalk test), the hind paw distance entry is “decrease”, the paw print area entry is “increase” and the paw time stand result is recorded as “decrease”. The safety in humans result in data set [2] is given as “safe”.

(Values after US12053480B2, “Methods and pharmaceutical compositions for treating peripheral demyelinating diseases” (INSERM (INSTITUT NATIONAL DE LA SANTE ET DE LA RECHERCHE …, priority 2015, dated 2024).)
